Experiment [1] can be described thus: DPPH radical scavenging by spectrophotometry. To be noted: 30 min at 22 to 24° C., 515 nm, concentrations as quercetin equivalent, read-out: SC50 (concentration required to obtain 50% of a maximum scavenging capacity). The experiment is classed as biochemical. The procedure: After a 30 min incubation at 22 to 24° C., the resultant absorbance was recorded at 515 nm by a double-beam spectrophotometer model UV-2401 (Shimadzu Scientific Instruments Inc., Columbia, Md.). Ascorbate, propyl gallate, and quercetin were used as reference standard. The scavenging capacity%=[1-((Abs of cranberry crude extract/fractions-Abs of blank)/Abs control)]*100. […] Plant Sci. 2002, 163, 1161-1168). The cranberry crude extract/fractions were evaluated and compared with ascorbic acid, propyl gallate and quercetin for the free radical scavenging activity toward stable DPPH radicals. […] Specifically, in referring to FIG. 21, the final concentration of DPPH radical was […].

Experiment [2] deals with trout hemoglobin-mediated lipid oxidation in washed cod muscle. Put plainly: Hemoglobin-mediated lipid oxidation in washed cod muscle (TBARS). Conditions: for Inhibition in TBARS formation: washed cod muscle; for Effect on lipid oxidation in washed cod muscle: hemoglobin-mediated, 2° C. storage, FIG. 22 and 23. The procedure:
Furthermore, cod muscle and trout hemoglobin were prepared according to the method described by Richards et al., Role of deoxyhemoglobin in lipid oxidation of washed cod muscle mediated by trout, poultry and beef hemoglobins. Meat Sci. 2002, 62, 157-163. The hemoglobin-mediated lipid oxidation system consisted of washed cod muscle, cranberry crude extract/fractions, streptomycin sulfate, and trout hemoglobin. The final concentration of hemoglobin and cranberry extract/fractions was 12 and 37/74 μmol per kg washed cod muscle, respectively. A control sample containing no cranberry crude extract/fractions was also prepared. The final moisture content of washed cod muscle was adjusted to 90%. pH was adjusted to between 6.10 and 6.30 by 1 M NaOH or HCl. All samples were stored at 2° C. for 7 to 9 days.
The progress of lipid oxidation in washed cod muscle was followed by periodically removing samples and quantifying TBARS formed by a modified method of Buege and Aust Microsomal lipid peroxidation. Method. Enzymol. 1978, LII, 302-310 as described by Richards et al., Role of deoxyhemoglobin in lipid oxidation of washed cod muscle mediated by trout, poultry and beef hemoglobins. Meat Sci. 2002, 62, 157-163. Lag time (LT) is defined as extension in stability compared to control sample which was stable for around 1 day. All trials in this study were conducted in duplicate or triplicate and in each trial triplicate determinations were performed

In experiment [3] the test system is mechanically separated turkey (MST). Put plainly: Lipid oxidation (TBARS) in mechanically separated turkey during iced storage.
Experiment [4] relates to salmon oil-in water emulsion. Put plainly: Lipid oxidation in salmon oil-in water emulsion. To be noted: 400 ppm, 10% salmon oil, 0.5% tween 20, pH 3.0, 27° C. How it is done: Similarly, applicants have tested cranberry fractions in various emulsion systems (FIGS. 7-0). More specifically, FIG. 7, illustrates the effect of quercetin on lipid oxidation in salmon oil-in water emulsion. […] The emulsion consisted of 10% (w/w) salmon oil, 0.5% (w/w) tween 20 and 10 mM pH 3.0 acetate-imidazole buffer. Quercetin was added into the emulsion samples at the level of 400 ppm. The emulsion samples were oxidized in a shaker oven at 27° C. Likewise, FIG. 8, also illustrates the effect of cranberry fractions on lipid oxidation in salmon oil-in water emulsion. However, cranberry fractions and quercetin were added into the emulsion samples at the level of 400 ppm. Also, FIGS. 9 and 10 illustrate the effect of cranberry fractions on lipid oxidation in salmon oil-in water emulsion. However, 10% salmon oil was used in both fraction 4 and control treated samples, whereas 9.2% oil was used in the fraction 2 treated sample.

On to `O=c1c(O)c(-c2ccc(O)c(O)c2)oc2cc(O)cc(O)c12` [quercetin], for which the EC50 in experiment [1] came out at 4.89 µM. Besides, the results for the “Inhibition in TBARS formation” value in experiment [2] (37 μmol quercetin per kg) and in experiment [2] (74 mmole quercetin equivalent) were 83% and “Up to 94%”, respectively. In addition, the “Effect on lipid oxidation in washed cod muscle” value in experiment [2] was “as effective as 37 mmole propyl gallate”. Also, in experiment [3] (210 umol quercetin/kg MST, 2° C. storage), the “Inhibition on lipid oxidation of MST” value is on record as “Effective inhibition”. In addition, the “Inhibition of lipid oxidation in MST” value in experiment [3] (quercetin at 50 umol/kg, precipitate added on a quercetin equivalent basis (FIG. 5)) is “highly effective”. Moreover, the “Effect on lipid oxidation in emulsion systems” value in experiment [4] is listed as “In 2 of 3 trials, quercetin was inhibitory”.
Consider `O=C1O[C@H]([C@@H](O)CO)C(O)=C1O` [ascorbic acid], for which, in experiment [1], the EC50 was 12.2 µM.
Turning to `CCCOC(=O)c1cc(O)c(O)c(O)c1` [propyl gallate], the EC50 in experiment [1] turned out to be 5.07 µM. The “Effect on lipid oxidation in washed cod muscle” value in experiment [2] is “stable throughout the entire storage period”.
